Results: patent US8680275B2, “Fused heterocyclic compounds as orexin receptor modulators” (Janssen Pharmaceutica NV, priority 2009, dated 2014)

What was measured:
human orexin 1 receptor = human orexin 1 receptor (Homo sapiens (Human), UniProt O43613); assay: Human orexin 1 receptor radioligand binding ([3H]-SB674042 competition); conditions: CHO cells stably expressing human orexin 1 receptor; [3H]-SB674042 4 nM final; read-out: OR-1 Ki
Experimental: (§1) The in vitro affinity of the compounds for the human orexin-1 and orexin-2 receptors was determined by competitive radioligand binding using [^3H]SB SB674042 (1-(5-(2-fluoro-phenyl)-2-methyl-thiazol-4-yl)-1-((S)-2-(5-phenyl-(1,3,4)oxadiazol-2-ylmethyl)-pyrrolidin-1-yl)methanone) (Langmead et al., British Journal of Pharmacology 2004, 141:340-346.) and [^3H]EMPA (N-ethyl-2[(6-methoxy-pyridin-3-yl)-(toluene-2-sulfonyl)-amino]-N-pyridin-3-ylmethyl acetamide) (Malherbe et al., British Journal of Pharmacology, 2009, 156(8), 1326-1341), respectively.
Human Orexin 1 Receptor Radioligand Binding Studies
Chinese ovary cells (CHO) stably expressing human orexin 1 receptor (Genebank accession number NM_001526) were grown to confluency in DMEM/F12 (Gibco, Cat #11039), 10% FBS, 1× Pen/Strep, 600 μg/mL G418 media on 150 cm^2 tissue culture plates, washed with 5 mM EDTA in PBS (HyClone Dulbecco's Phoshpate Buffered Saline 1× with Calcium and Magnesium, Cat #SH30264.01, hereafter referred to simply as PBS) and scraped into 50 ml tubes. After centrifugation (2K xG, 10 min at 4° C.), the supernatant was aspirated and the pellets frozen and stored at −80° C. Cells were resuspended in PBS in the presence of 1 tablet of protease inhibitor cocktail (Roche, Cat. #11836145001) per 50 mL. […] Compounds were solubilized in 100% DMSO (Acros Organics, Cat. #61042-1000) and tested over a range of 7 concentrations (from 0.1 nM to 10 μM). The final concentration of DMSO in the reactions is equal to or less than 0.1%. Total and nonspecific binding was determined in the absence and presence of 10 μM (1-(6,8-difluoro-2-methylquinolin-4-yl)-3-[4-(dimethylamino)phenyl]urea, CAS Registry #288150-92-5). The total volume of each reaction is 200 μL (20 μL of diluted compounds, 80 μL of [^3H]-SB674042 diluted in PBS and 100 μL of the cell suspension). Reactions were run for 60 min at room temperature and terminated by filtration through GF/C filter plates (PerkinElmer, Cat. #6005174) presoaked in 0.3% polyethylenimine using the cell harvester (PerkinElmer Filtermate). The plates were washed 3 times by aspirating 30 ml PBS through the plates. Plates were dried in 55° C. oven for 60 min, scintillation fluid was added, and the radioactivity was counted on a Topcount (Packard).

human orexin-2 receptor = human orexin-2 receptor (Homo sapiens (Human), UniProt O43614); assay: Human orexin 2 receptor radioligand binding ([3H]-EMPA competition); conditions: HEK293 cells stably expressing human orexin-2 receptor; [3H]-EMPA 5 nM final; read-out: OR-2 Ki
human orexin-2 receptor, sequence (O43614 whole entry): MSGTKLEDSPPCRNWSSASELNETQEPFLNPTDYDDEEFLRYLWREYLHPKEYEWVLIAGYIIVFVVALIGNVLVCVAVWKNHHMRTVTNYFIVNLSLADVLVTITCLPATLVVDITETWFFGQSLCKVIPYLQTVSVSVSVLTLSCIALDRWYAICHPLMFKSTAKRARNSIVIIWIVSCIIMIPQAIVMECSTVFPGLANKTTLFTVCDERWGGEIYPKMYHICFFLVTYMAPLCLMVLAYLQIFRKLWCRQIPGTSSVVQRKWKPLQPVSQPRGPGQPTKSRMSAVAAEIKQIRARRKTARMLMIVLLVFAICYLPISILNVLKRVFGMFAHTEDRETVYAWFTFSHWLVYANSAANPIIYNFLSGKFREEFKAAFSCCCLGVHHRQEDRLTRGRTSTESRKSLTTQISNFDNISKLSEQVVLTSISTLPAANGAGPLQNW
Experimental: as §1
Human Orexin 2 Receptor Radioligand Binding Studies
HEK293 stably expressing human orexin-2 receptor (Genebank accession number NM_001526) were grown to confluency in DMEM/F12 (Gibco, Cat #11039), in DMEM, 10% FBS, 1× Pen/Strep, 1× NaPyruvate, 1×HEPES, 600 ug/ml G418 media on 150 cm^2 tissue culture plates, washed with 5 mM EDTA in PBS (HyClone Dulbecco's Phosphate Buffered Saline 1× with Calcium and Magnesium, Cat #SH30264.01, hereafter referred to simply as PBS) and scraped into 50 ml tubes. After centrifugation (2K xG, 10 min at 4° C.), the supernatant was aspirated and the pellets frozen and stored at −80° C. Cells were resuspended in PBS in the presence of 1 tablet of protease inhibitor cocktail (Roche, Cat. #11836145001) per 50 mL. […] Competition binding experiments in 96 well polypropylene plates were performed using [^3H]-EMPA (Moravek Corporation, specific activity=27 Ci/mmol), diluted to a […] concentration in PBS (5 nM final concentration). Compounds were solubilized in 100% DMSO (Acros Organics, Cat. #61042-1000) and tested over a range of 7 concentrations (from 0.1 nM to 10 μM). The final concentration of DMSO in the reactions is equal to or less than 0.1%. Total and nonspecific binding was determined in the absence and presence of 10 μM (N-[2-(3,4-dimethoxyphenyl)ethyl]-N-methylnaphthalene-1-carboxamide, CAS Registry #1089563-88-1). The total volume of each reaction is 200 μL (20 μL of diluted compounds, 80 μL of [^3H]-EMPA diluted in PBS and 100 μL of the cell suspension). Reactions were run for 60 min at room temperature and terminated by filtration through GF/C filter plates (PerkinElmer, Cat. #6005174) presoaked in 0.3% polyethylenimine using the cell harvester (Perkin Elmer Filtermate). The plates were washed 3 times by aspirating 30 ml PBS through the plates. Plates were dried in 55° C. oven for 60 min, scintillation fluid was added, and the radioactivity was counted on a Topcount (Packard).

human orexin 1 receptor, sequence (O43613 whole entry): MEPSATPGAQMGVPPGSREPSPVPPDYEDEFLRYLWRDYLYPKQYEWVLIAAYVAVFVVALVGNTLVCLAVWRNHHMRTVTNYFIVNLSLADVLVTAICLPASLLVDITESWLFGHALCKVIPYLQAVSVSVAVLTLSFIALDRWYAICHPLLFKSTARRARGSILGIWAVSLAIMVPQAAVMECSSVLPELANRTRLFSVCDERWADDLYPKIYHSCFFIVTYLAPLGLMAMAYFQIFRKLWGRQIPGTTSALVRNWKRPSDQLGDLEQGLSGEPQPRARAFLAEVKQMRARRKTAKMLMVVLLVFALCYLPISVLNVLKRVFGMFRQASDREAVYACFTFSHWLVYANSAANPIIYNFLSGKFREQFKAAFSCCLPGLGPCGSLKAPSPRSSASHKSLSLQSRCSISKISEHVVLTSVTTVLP

Row | SMILES | Ki (human orexin 1 receptor) | Ki (human orexin-2 receptor)
1 | CN(C)c1nc(N2C[C@@H]3CCN(C(=O)c4ccccc4-n4nccn4)C[C@@H]32)cc(C(F)(F)F)n1 [Example 36, (1R,6S)-[8-(2-Dimethylamino-6-trifluoromethyl-pyrimidin-4-yl)-3,8-diaza-bicyclo[4.2.0]oct-3-yl]-(2-[1,2,3]triazol-2-yl-phenyl)-methanone] | 11 nM | 5 nM
2 | CN(C)c1nc(N2C[C@@H]3CCN(C(=O)c4c(F)cccc4-n4nccn4)C[C@@H]32)cc(C(F)(F)F)n1 [Example 37, (1R,6S)-[8-(2-Dimethylamino-6-trifluoromethyl-pyrimidin-4-yl)-3,8-diaza-bicyclo[4.2.0]oct-3-yl]-(2-fluoro-6-[1,2,3]triazol-2-yl-phenyl)-methanone] | 19 nM | 10 nM
3 | CN(C)c1nc(N2C[C@@H]3CCN(C(=O)c4ccc(F)cc4-n4nccn4)C[C@@H]32)cc(C(F)(F)F)n1 [Example 38, (1R,6S)-[8-(2-Dimethylamino-6-trifluoromethyl-pyrimidin-4-yl)-3,8-diaza-bicyclo[4.2.0]oct-3-yl]-(4-fluoro-2-[1,2,3]triazol-2-yl-phenyl)-methanone] | 77 nM | 16 nM
4 | O=C(c1ccccc1-n1nccn1)N1CC[C@H]2CN(c3cnc4ccccc4n3)[C@H]2C1 [Example 39, (1R,6S)-(8-Quinoxalin-2-yl-3,8-diaza-bicyclo[4.2.0]oct-3-yl)-(2-[1,2,3]triazol-2-yl-phenyl)methanone] | 32 nM | 20 nM
5 | Cc1cc(N2C[C@@H]3CCN(C(=O)c4cc(F)ccc4-n4nccn4)C[C@@H]32)nc(N(C)C)n1 [Example 40, (1R,6S)-[8-(2-Dimethylamino-6-methyl-pyrimidin-4-yl)-3,8-diaza-bicyclo[4.2.0]oct-3-yl]-(5-fluoro-2-[1,2,3]triazol-2-yl-phenyl)-methanone] | 1210 nM | 91 nM
6 | Cc1cc(N2C[C@@H]3CCN(C(=O)c4ccccc4-n4nccn4)C[C@@H]32)nc(N(C)C)n1 [Example 43, (1R,6S)-[8-(2-Dimethylamino-6-methyl-pyrimidin-4-yl)-3,8-diaza-bicyclo[4.2.0]oct-3-yl]-(2-[1,2,3]triazol-2-yl-phenyl)-methanone] | 475 nM | 90 nM
7 | Cc1cc(N2C[C@@H]3CCN(C(=O)c4c(F)cccc4-n4nccn4)C[C@@H]32)nc(N(C)C)n1 [Example 44, (1R,6S)-[8-(2-Dimethylamino-6-methyl-pyrimidin-4-yl)-3,8-diaza-bicyclo[4.2.0]oct-3-yl]-(2-fluoro-6-[1,2,3]triazol-2-yl-phenyl)-methanone] | 480 nM | 73 nM
8 | CN(C)c1nc(N2C[C@@H]3CCN(C(=O)c4cc(F)ccc4-n4nccn4)C[C@@H]32)cc(C(F)(F)F)n1 [Example 46, (1R,6S)-[8-(2-Dimethylamino-6-trifluoromethyl-pyrimidin-4-yl)-3,8-diaza-bicyclo[4.2.0]oct-3-yl]-(5-fluoro-2-[1,2,3]triazol-2-yl-phenyl)-methanone] | 47 nM | 15 nM
9 | O=C(c1ccccc1-c1ccccc1)N1CC2CN(c3nccc(-c4ccccc4)n3)C2C1 (stereo not drawn) [Example 47, 3-(Biphenyl-2-ylcarbonyl)-6-(4-phenylpyrimidin-2-yl)-3,6-diazabicyclo[3.2.0]heptane] | 206 nM | 132 nM
10 | O=C(c1ccccc1-c1ccccc1)N1CC2CN(c3cnc4ccccc4n3)C2C1 (stereo not drawn) [Example 48, 2-[3-(Biphenyl-2-ylcarbonyl)-3,6-diazabicyclo[3.2.0]hept-6-yl]quinoxaline] | 258 nM | 179 nM
11 | O=C(c1ccccc1-c1cccs1)N1CC2CN(c3cnc4ccccc4n3)C2C1 (stereo not drawn) [Example 49, 2-{3-[(2-Thiophen-2-ylphenyl)carbonyl]-3,6-diazabicyclo[3.2.0]hept-6-yl}quinoxaline] | 114 nM | 77 nM
12 | O=C(c1ccccc1-c1cccs1)N1CC2CN(c3nccc(-c4ccccc4)n3)C2C1 (stereo not drawn) [Example 50, 6-(4-Phenylpyrimidin-2-yl)-3-[(2-thiophen-2-ylphenyl)carbonyl]-3,6-diazabicyclo[3.2.0]heptane] | 39 nM | 94 nM
13 | Cc1nc(C(=O)N2CC3CN(c4cnc5ccccc5n4)C3C2)c(-c2ccccc2F)s1 (stereo not drawn) [Example 51, 2-(3-{[5-(2-Fluorophenyl)-2-methyl-1,3-thiazol-4-yl]carbonyl}-3,6-diazabicyclo[3.2.0]hept-6-yl)quinoxaline] | 432 nM | 501 nM
14 | Cc1nc(C(=O)N2CC3CN(c4nccc(-c5ccccc5)n4)C3C2)c(-c2ccccc2F)s1 (stereo not drawn) [Example 52, 3-{[5-(2-Fluorophenyl)-2-methyl-1,3-thiazol-4-yl]carbonyl}-6-(4-phenylpyrimidin-2-yl)-3,6-diazabicyclo[3.2.0]heptane] | 104 nM | 137 nM
15 | COc1ccccc1C(=O)N1CC2CN(c3nccc(-c4ccccc4)n3)C2C1 (stereo not drawn) [Example 53, 3-[(2-Methoxyphenyl)carbonyl]-6-(4-phenylpyrimidin-2-yl)-3,6-diazabicyclo[3.2.0]heptane] | 3700 nM | 1810 nM
16 | COc1ccccc1C(=O)N1CC2CN(c3cnc4ccccc4n3)C2C1 (stereo not drawn) [Example 54, 2-{3-[(2-Methoxyphenyl)carbonyl]-3,6-diazabicyclo[3.2.0]hept-6-yl}quinoxaline] | 3450 nM | 2420 nM
17 | Cc1cc(C)nc(N2CC3CN(C(=O)c4ccccc4-c4cccs4)CC32)n1 (stereo not drawn) [Example 57, 6-(4,6-Dimethylpyrimidin-2-yl)-3-[(2-thiophen-2-ylphenyl)carbonyl]-3,6-diazabicyclo[3.2.0]heptane] | 3570 nM | 29 nM
18 | Cc1cc(C)nc(N2CC3CN(C(=O)c4ccccc4Br)CC32)n1 (stereo not drawn) [Example 58, 3-[(2-Bromophenyl)carbonyl]-6-(4,6-dimethylpyrimidin-2-yl)-3,6-diazabicyclo[3.2.0]heptane] | 9650 nM | 1050 nM
19 | Cc1ccnc(N2CC3CN(C(=O)c4ccccc4Br)CC32)n1 (stereo not drawn) [Example 59, (2-Bromo-phenyl)-[6-(4-methyl-pyrimidin-2-yl)-3,6-diaza-bicyclo[3.2.0]hept-3-yl]-methanone] | 10000 nM | 9320 nM
20 | Cc1ccnc(N2CC3CN(C(=O)c4ccccc4-c4cccs4)CC32)n1 (stereo not drawn) [Example 60, 6-(4-Methylpyrimidin-2-yl)-3-[(2-thiophen-2-ylphenyl)carbonyl]-3,6-diazabicyclo[3.2.0]heptane] | 10000 nM | 188 nM
21 | Cc1ccnc(N2CC3CN(C(=O)c4ccccc4-c4ccccc4)CC32)n1 (stereo not drawn) [Example 61, 3-(Biphenyl-2-ylcarbonyl)-6-(4-methylpyrimidin-2-yl)-3,6-diazabicyclo[3.2.0]heptane] | 10000 nM | 980 nM
